Laboratory results from patent US20260217727A1, “COMPOUNDS DERIVED FROM DIHYDROPIRIDINES, PHARMACEUTICAL COMPOSITIONS COMPRISING SAID COMPOUNDS AND METHOD OF TREATMENT OF MUSCLE DISORDERS COMPRISING ADMINISTRATION OF SAID COMPOSITIONS” (UNIVERSIDAD DE CHILE, priority 2023, published 2026).
“Also recorded” adds a separate entry of the source.

Experiments:
[1] = target: T1, Cav1.1 channels (dihydropyridine receptors) (Mus musculus, UniProt Q02789); settings: earlier results, stated in words; cited from earlier work
T1 construct: endogenous in cells; host or cells: single skeletal muscle fibers isolated from C57 mouse flexor digitorum brevis (FDB) muscle

fdb muscle fibers [2] = settings: earlier results of the inventors; cited from earlier work
[3] = tested on: muscle fibers of normal mice; assay: qPCR of proinflammatory genes in muscle fibers exposed to extracellular ATP; format: cell-based, mouse; settings: 300 μM extracellular ATP for 2 h
Protocol: Total RNA from the isolated muscle fiber culture was extracted using TRIzol (Invitrogen) according to the manufacturer's protocol. The cDNA was obtained by reverse transcription from 1 μg of total RNA, using the enzyme SuperScript II (Invitrogen) according to the manufacturer's protocol. Real-time qPCR assays were performed using a thermocycler (Stratagene Mx300P, Agilent) according to the following protocol. The reaction mix will be given by 1 μL 10×dNTPs, 0.5 μL sense primer (10 pmol/μL), 0.5 μL antisense primer (10 pmol/μL), 4 μL EVA Green (Invitrogen) and 1 μL cDNA. The final volume of the mix was brought to 20 μL by adding nuclease-free water. All primers have an optimal amplification efficiency (between 90-110%). In any case, the analysis of the data was carried out considering a correction of the amplification cycle of each gene according to the amplification efficiency of the primers. The thermocycling conditions were the following: 1 cycle of 12 min at 95° C., followed by 40 cycles of 15 at 95° C. […] The Ct value was determined by the MXPro software when the fluorescence level is 25% higher than the basal fluorescence. […]
Increases in proinflammatory markers have been reported in the muscles of older adults, as part of the process of losing muscle mass. Therefore, the effect of chronic exposure to high levels of extracellular ATP on mRNA levels of proinflammatory genes was evaluated. […]

[4] = target: T1, Cav1.1 channels (dihydropyridine receptors); assay: Whole cell voltage-clamp measurement of L-type Ca2+ currents in isolated fdb muscle fibers; format: cell-based; settings: L-type calcium peak current, mouse skeletal muscle fibers, control = maximum current without drug, read-out: % inhibition of Ca^2+ current
fdb muscle fibers [5] = assay: ATP release from fdb muscle fibers after 20 Hz electrical stimulation (luciferin/luciferase); format: cell-based, mouse; settings: pre-incubation 10 μM for 30 min
Protocol: Isolation of skeletal muscle fibers was performed from C57BL/J6 mice between 8 and 10 weeks of age. Isolated fibers were obtained from the flexor digitorum brevis (FoB) and Gastrocnemius muscle by enzymatic digestion for 90 min with 400 U/mL type II collagenase (Worthington Biochemicals Corp., Lakewood, NJ, USA) and mechanical dissociation with Pasteur pipettes, as previously described (Casas et.al, 2010). The isolated fibers were seeded in Petri dishes coated with a layer of Matrigel in Dulbecco's modified Eagle's culture medium (DMEM), supplemented with 10% horse serum, 50 U/mL penicillin and […] streptomycin. Cell cultures were used approximately 20 h after the fiber seeding process. All protocols were previously approved by the Bioethics Committee of the Faculty of Medicine of the University of Chile. […]
Extracellular ATP concentrations were determined using the CellTiter-Glo® Luminescent Cell Viability Assay Kit (Promega). […] After incubating for 10 min in the dark at room temperature, the samples were quantified in an FB12 (Berthold) luminometer. […] RNA normalization was preferred over total protein normalization since adult fiber cultures were seeded on a matrigel sheet, which has a large amount of protein and could alter the quantification process. […]

aged mice [6] = assay: Incremental strength test (weightlifting) in aged mice; format: in vivo, mouse
Protocol: The muscle function of aged mice (between 19 and 21 months of age) was assessed with an incremental strength test (weightlifting) and with an incremental treadmill running test. The measurement was made after 12 days of treatment with MP-2 (1 mg/Kg/day) administered via intraperitoneal injection. As a control, vehicle-injected mice were used in the same manner as drug-injected mice. Recovery of muscle function can be observed after treatment. Data were analyzed as the change in test performance at the end of treatment relative to performance at the start of treatment for each mouse. It is observed that the treatment improves the strength parameters more than 4 times with respect to the control. […] The mean±SEM is plotted. N=5 for each group, *: p<0.05
Two functional tests were performed in control (saline-injected) and MP-2-treated (daily intraperitoneal injections of 1 mg/Kg MP-2 for 12 days) mice.

aged mice [7] = assay: Incremental treadmill running test (endurance) in aged mice; format: in vivo, mouse
Protocol: The standardization of this test that evaluates resistance and strength was carried out in the treadmill equipment for rodents. The test consists of 5 sessions where the animals were acclimatized for 5 minutes at the equipment's minimum speed of 0.3 Km/h and the number of shots of compressed air that keep the animal trotting is counted. Once the acclimatization process was finished, the animals were evaluated in an incremental test consisting of 2-minute ramps at the minimum speed and then gradually increasing 0.1 Km/h after 2 minutes until the animal could no longer run. This maximum effort test is only performed once per session and is considered finished when the animal reaches the bottom of the ramp and accumulates 10 shots of compressed air in a period of 10 seconds.
The muscle function of aged mice (between 19 and 21 months of age) was assessed with an incremental strength test (weightlifting) and with an incremental treadmill running test. The measurement was made after 12 days of treatment with MP-2 (1 mg/Kg/day) administered via intraperitoneal injection. As a control, vehicle-injected mice were used in the same manner as drug-injected mice. Recovery of muscle function can be observed after treatment. Data were analyzed as the change in test performance at the end of treatment relative to performance at the start of treatment for each mouse. […]

[8] = aged mice 19-21 months, 1 mg/Kg/day i.p. for 12 days, change end vs start of treatment

T1 sequence (Q02789 whole entry): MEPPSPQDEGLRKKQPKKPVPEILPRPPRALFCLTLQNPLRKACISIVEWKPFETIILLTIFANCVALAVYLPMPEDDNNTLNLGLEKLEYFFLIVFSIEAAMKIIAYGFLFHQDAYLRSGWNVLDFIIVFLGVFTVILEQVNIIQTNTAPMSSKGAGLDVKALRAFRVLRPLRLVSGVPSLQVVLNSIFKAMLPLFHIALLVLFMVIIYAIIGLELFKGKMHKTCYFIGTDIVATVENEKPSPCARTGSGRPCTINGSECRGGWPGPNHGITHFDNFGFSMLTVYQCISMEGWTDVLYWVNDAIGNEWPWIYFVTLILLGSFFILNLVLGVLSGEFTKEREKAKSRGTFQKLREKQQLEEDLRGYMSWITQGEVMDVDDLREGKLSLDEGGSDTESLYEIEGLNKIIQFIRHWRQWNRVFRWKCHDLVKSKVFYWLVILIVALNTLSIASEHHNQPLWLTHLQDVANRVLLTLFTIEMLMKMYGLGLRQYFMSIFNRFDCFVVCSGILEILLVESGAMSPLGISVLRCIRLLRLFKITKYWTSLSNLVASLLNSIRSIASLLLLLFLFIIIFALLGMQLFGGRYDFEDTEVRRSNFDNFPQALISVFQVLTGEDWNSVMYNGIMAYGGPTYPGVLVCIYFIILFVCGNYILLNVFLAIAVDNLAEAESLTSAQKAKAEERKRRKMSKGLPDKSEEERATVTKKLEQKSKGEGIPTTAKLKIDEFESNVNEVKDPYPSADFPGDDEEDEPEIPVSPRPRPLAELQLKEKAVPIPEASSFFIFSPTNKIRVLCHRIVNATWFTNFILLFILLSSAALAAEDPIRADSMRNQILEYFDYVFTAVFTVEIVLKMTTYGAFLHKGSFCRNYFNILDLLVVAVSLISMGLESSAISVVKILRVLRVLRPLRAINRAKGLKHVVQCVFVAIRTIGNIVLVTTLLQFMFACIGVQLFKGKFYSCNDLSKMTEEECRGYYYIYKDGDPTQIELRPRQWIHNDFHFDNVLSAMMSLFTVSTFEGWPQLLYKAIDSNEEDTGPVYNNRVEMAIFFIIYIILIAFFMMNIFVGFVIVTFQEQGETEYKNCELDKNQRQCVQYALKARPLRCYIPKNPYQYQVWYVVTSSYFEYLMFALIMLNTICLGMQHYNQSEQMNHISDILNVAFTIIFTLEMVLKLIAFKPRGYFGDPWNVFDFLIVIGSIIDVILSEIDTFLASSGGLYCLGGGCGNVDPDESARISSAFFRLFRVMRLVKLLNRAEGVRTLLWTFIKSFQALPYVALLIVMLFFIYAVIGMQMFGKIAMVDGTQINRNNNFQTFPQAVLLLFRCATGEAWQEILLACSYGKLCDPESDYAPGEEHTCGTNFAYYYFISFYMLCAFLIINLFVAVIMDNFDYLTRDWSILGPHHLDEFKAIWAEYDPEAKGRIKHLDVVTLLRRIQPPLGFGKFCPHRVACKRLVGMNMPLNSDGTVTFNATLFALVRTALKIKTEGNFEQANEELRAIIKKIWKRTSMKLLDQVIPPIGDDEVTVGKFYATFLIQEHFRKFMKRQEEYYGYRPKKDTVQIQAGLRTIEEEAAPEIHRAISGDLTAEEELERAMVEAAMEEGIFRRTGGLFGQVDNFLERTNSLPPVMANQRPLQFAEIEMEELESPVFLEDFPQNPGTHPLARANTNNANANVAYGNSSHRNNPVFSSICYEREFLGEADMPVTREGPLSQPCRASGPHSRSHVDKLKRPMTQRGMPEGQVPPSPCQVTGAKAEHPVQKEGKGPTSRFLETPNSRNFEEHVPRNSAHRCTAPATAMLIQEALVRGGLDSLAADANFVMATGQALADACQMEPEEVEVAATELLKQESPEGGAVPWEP
T1 sequence (Q8R3Z5 whole entry partner): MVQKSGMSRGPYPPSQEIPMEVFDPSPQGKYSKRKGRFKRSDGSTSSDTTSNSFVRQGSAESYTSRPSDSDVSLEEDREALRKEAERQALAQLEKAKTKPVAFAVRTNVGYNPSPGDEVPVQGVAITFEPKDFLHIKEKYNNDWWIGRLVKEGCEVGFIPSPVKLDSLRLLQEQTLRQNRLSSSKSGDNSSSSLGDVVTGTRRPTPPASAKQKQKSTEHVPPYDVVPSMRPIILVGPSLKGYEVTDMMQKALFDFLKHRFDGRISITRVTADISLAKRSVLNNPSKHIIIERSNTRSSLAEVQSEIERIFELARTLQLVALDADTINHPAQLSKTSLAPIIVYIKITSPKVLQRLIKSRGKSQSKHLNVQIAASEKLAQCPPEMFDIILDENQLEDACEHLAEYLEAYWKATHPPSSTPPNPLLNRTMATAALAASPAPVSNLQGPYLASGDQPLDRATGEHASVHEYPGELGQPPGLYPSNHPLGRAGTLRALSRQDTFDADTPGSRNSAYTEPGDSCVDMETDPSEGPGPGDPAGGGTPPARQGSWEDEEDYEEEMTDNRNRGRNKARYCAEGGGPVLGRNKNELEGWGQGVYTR
T1 sequence (O08532 25-1103 partner): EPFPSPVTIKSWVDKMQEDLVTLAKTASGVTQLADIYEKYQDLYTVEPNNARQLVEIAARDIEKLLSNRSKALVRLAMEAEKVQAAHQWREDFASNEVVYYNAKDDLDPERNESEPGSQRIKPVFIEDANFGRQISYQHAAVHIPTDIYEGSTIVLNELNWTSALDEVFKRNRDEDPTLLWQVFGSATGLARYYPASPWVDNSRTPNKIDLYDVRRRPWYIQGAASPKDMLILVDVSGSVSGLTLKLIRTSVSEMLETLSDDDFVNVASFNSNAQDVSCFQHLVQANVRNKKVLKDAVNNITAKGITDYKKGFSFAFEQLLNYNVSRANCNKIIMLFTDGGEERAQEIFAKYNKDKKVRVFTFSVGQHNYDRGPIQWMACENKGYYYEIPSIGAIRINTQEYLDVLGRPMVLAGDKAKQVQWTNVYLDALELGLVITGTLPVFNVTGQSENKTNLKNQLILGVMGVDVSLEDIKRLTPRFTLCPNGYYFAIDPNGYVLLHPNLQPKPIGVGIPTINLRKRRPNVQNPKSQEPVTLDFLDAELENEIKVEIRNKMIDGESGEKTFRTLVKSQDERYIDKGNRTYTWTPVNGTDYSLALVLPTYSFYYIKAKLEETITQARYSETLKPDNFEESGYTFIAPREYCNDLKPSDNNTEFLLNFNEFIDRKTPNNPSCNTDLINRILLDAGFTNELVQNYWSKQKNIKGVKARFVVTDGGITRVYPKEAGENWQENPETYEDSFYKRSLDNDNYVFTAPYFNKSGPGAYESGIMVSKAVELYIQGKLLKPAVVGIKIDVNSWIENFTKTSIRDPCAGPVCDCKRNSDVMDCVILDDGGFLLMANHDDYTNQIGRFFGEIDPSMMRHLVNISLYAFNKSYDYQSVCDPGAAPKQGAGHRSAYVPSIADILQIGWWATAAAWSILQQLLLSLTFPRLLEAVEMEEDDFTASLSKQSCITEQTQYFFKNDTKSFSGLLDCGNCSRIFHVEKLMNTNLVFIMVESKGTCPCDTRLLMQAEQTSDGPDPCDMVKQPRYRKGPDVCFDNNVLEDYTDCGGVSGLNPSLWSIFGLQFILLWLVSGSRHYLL
T1 sequence (O70578 whole entry partner): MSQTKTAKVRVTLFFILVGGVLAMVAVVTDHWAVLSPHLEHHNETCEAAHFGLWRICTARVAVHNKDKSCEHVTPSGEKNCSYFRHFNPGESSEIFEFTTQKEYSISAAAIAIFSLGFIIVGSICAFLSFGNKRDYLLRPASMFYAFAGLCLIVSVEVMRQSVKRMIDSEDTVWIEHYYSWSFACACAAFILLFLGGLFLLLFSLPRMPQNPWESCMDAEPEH

SMILES: COC(=O)C1=C(C)NC(C)=C([N+](=O)[O-])[C@H]1c1ccccc1C(F)(F)F [(S)-(−)-BayK-8644]
- effect on Ca^2+ current through the DHPR channel (earlier work) [1]: increases Ca^2+ current
- ATP outflow after electrical stimulation of the muscle fiber (earlier work) (fdb muscle fibers [2]): also inhibits ATP release

SMILES: Nc1ncnc2c1ncn2[C@@H]1O[C@H](COP(=O)(O)OP(=O)(O)OP(=O)(O)O)[C@@H](O)[C@H]1O [ATP]
- mRNA levels of proinflammatory genes (TNF-α and IL-6) [3]: increase

SMILES: COC(=O)C1=C(C)NC2=C(C(=O)OC2)C1c1ccccc1[N+](=O)[O-] (stereo not drawn) [MP-2, methyl 2-methyl-4-(2-nitrophenyl)-5-oxo-1,4,5,7-tetrahydrofuro [3,4-b]pyridine-3-carboxylate]
- inhibition at 10 µM [4]: 50 ± 8%
- inhibition of ATP outflow induced by 20 Hz electrical stimulation (fdb muscle fibers [5]): inhibits the outflow of ATP; also recorded: indistinguishable from that of nifedipine
- inhibition of ATP outflow induced by 20 Hz electrical stimulation (fdb muscle fibers [5]; listed as MP2): inhibits in a similar way as nifedipine
- improvement of strength parameters with respect to the control (aged mice [6]; [8]): more than 4 times
- muscle strength in aged mice (aged mice [6]; aged mice (age>18 months)): substantially improves their muscle strength
- improvement in weight test (measure of strength) (aged mice [6]; daily i.p. 1 mg/Kg for 12 days): 64.4%
- increase in Endurance test (incremental treadmill test) over the control (aged mice [7]; [8]): ~5 times
- improvement in treadmill test (measure of resistance) (aged mice [7]; daily i.p. 1 mg/Kg for 12 days): 25%

SMILES: CCOC(=O)C1=C(C)NC(C)=C(C(=O)OC)C1c1cccc([N+](=O)[O-])c1 (stereo not drawn) [Nitrendipine]
- inhibition at 10 µM [4]: 47.6 ± 2%

SMILES: COC(=O)C1=C(C)NC(C)=C(C(=O)OCC(C)C)C1c1ccccc1[N+](=O)[O-] (stereo not drawn) [Nisoldipine]
- inhibition at 10 µM [4]: 14.3 ± 7%

SMILES: COCCOC(=O)C1=C(C)NC(C)=C(C(=O)OC(C)C)C1c1cccc([N+](=O)[O-])c1 (stereo not drawn) [Nimodipine]
- inhibition at 10 µM [4]: 48 ± 10%

SMILES: COC(=O)C1=C(C)NC(C)=C(C(=O)OCCN(C)Cc2ccccc2)C1c1cccc([N+](=O)[O-])c1 (stereo not drawn) [Nicardipine]
- inhibition at 10 µM [4]: 32.6 ± 8%
